Data set [1] can be described thus: Microsomal stability (MLM). As to the method: (§1) Cold acetonitrile (ACN) including 100 ng/mL Tolbutamide and 100 ng/mL Labetalol as internal standard (IS) were used for stop solution. 10 μL compound or control working solution/well was added to all plates (T0, T5, T10, T20, T30, T60, NCF60) except matrix blank. Dispense 80 μL/well microsome solution was added to every plate by Apricot, the mixture of microsome solution and compound were incubated at 37° C. for about 10 min. After pre-warming, dispense 10 μL/well NADPH regenerating system was added to every plate by Apricot to start reaction. The solution was then incubated at 37° C. 300 (μL/well) stop solution (cold in 4° C.) was added to terminate the reaction. The sampling plates were shaken for approximately 10 min. Samples were centrifuged at 4000 rpm for 20 min under 4° C. While centrifuging, 8×new 96-well plate were loaded with 300 μL HPLC water, then 100 μL supernatant was transferred and mixed for LC/MS/MS.

A short description of data set [2]: Microsomal stability (DLM). The settings on record: for Remaining (*NCF = 60 min) / Remaining (T = 60 min): 1 h. As to the method:
as §1

The target of another data set is T1, Human DDR1b (Homo sapiens, UniProt Q08345).
T1 construct: expressed in transfected cells
T1 sequence (Q08345 19-913): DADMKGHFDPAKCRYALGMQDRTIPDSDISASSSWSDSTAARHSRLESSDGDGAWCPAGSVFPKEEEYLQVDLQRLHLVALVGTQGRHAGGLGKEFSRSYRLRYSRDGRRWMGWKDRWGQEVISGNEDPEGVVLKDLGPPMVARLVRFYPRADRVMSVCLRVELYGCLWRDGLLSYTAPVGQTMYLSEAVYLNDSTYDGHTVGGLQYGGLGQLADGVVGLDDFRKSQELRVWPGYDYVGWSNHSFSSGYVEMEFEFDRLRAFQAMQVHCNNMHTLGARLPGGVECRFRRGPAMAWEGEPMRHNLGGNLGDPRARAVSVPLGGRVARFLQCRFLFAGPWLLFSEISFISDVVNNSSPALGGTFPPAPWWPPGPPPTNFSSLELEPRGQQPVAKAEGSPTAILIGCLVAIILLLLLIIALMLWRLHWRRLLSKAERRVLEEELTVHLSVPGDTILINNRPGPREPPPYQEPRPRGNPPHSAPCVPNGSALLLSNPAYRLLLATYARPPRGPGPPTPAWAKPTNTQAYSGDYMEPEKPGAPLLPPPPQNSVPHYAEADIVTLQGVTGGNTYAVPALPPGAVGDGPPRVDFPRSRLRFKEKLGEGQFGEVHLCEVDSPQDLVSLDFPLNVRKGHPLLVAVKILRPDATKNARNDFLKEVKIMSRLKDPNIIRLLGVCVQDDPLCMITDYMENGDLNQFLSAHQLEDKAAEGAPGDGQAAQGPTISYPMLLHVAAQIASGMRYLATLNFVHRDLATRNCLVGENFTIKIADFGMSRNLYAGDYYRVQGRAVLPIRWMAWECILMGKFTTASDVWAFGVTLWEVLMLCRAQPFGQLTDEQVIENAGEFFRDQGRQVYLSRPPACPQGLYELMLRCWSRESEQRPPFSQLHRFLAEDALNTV
In words: DDR1 autophosphorylation in collagen-stimulated U2OS cells (Western blot). In kind it is cell-based. As to conditions: normalized to HA and GAPDH. The procedure:
The amount of activated DRR1 (Y543) was measured using Western blot analysis, the obtained data were normalized to HA and GAPDH protein levels.
Human DDR1b gene with HA-tag was cloned into pCMV Tet-On vector (Clontech) and stable inducible cell lines established in U2OS were used for the IC50 test. […] The cells were detached with trypsinization and transferred to a 15-ml tube.
(Immunoblotting shows a protein as a band on a membrane.)

The next data set is described as follows: pKa. In kind it is physicochemical. The procedure: (§2) Since Compound 2 contains an imidazolidine fragment typically unusual in drug discovery we experimentally assessed key properties for this molecule. […] The inhibition activity of Compounds 1 and 2 towards a small panel of key cytochrome P450 (CYP450) isoforms was also assessed in vitro (Table 2).
Another data set can be described thus: Thermodynamic solubility. Format: physicochemical. The procedure:
as §2

In another data set the target is hDDR1 (Homo sapiens, UniProt Q08345). In words: KinaseProfiler radiometric biochemical kinase assay (Eurofins). Further details: purchased Eurofins 14-942KP10. As to the method:
The experimental procedures were performed by Eurofins. The activity of the molecules against hDDR1 and hDDR2 kinases was assessed using KinaseProfiler^67. […] The enzymatic reaction processed in the presence of Mg^2+ cations and ATP at room temperature for 40 minutes and terminated by addition of phosphoric acid. […] All the compounds were prepared in 100% DMSO. […] The biological evaluation of selectivity against non-target kinases was performed in Dundee Eurofins, using Scan Max Delta Panel [10 μM ATP] KinaseProfiler^68.

A short description of data set [3]: Mouse PK study, IV administration. The settings on record: IV 10 mg/kg, M01-M03 individual. Format: in vivo.
Data set [4] is described as follows: Mouse PK study, PO administration. In kind it is in vivo.
Where [5] appears, read: PO 15 mg/kg, M04-M06 individual, c4 Mean ± SD, 15 mg/kg, mean.

Usually IC50 stands for the point on the concentration scale where inhibition reaches its midpoint. One may read the pKa as the negative logarithm of the acid dissociation constant. What is called Vdss is the apparent volume that relates the amount in the body to the concentration in plasma or blood. Lower therefore signals little distribution into tissue. Broadly, the Cmax is the maximum level reached in the sampled fluid or tissue. Usually Tmax stands for the time at which the peak concentration occurs.

Where only a bound is given, the exact number is not on record here.

Chain of hDDR1 (Q08345 19-913): as above

As to `O=C(Nc1cccc(C(=O)N2CCN(c3ccnc4[nH]ccc34)C2)c1)c1cccc(C(F)(F)F)c1` [Compound 2], the “CLint(mic)” value in data set [1] (MLM 0.5) is reported as 91.8; in data set [2] (DLM 0.5) it was 162.6; in data set [2] (HLM 0.5) it was 108.2; in data set [2] (rat, microsomes), 80.6. Moreover, the T1/2 in data set [1] (mouse, microsomes) turned out to be 0.252 h; in data set [2] (dog, microsomes), 0.142 h; in data set [2] (human, microsomes) it was 0.213 h; in data set [2] (rat, microsomes), 0.287 h. The “Remaining (*NCF = 60 min)” value in data set [1] (mouse, microsomes, 1 h) is reported as 86.0%; in data set [2] (dog, microsomes), 99.9%; in data set [2] (human, microsomes), 88.7%; in data set [2] (rat, microsomes), 88.3%. In addition, the “Remaining (T = 60 min)” value in data set [1] (mouse, microsomes, 1 h) stood at 5.3%; in data set [2] (dog, microsomes), 0.6%; in data set [2] (human, microsomes), 2.8%; in data set [2] (rat, microsomes) it was 7.1%. Further, the IC50 at Human DDR1b was determined as 0.0058 µM; on hDDR1 (read-out: IC50, inhibition of DDR1 activity), 0.021 µM. The same molecule returned a pKa in “pKa” of 6.99. The thermodynamic solubility in “Thermodynamic solubility” is under 0.59 µg/mL. Also, the “activity against DDR1 kinase (in words)” value on hDDR1 was “low nanomolar range”. At hDDR1 (N number of heavy atoms), the “LE** = 1.4*(pIC50)/N” value is listed as 0.31.
For `Cc1ccc2c(Nc3cccc(C(F)(F)F)c3)noc2c1C#Cc1cnc2cccnn12` [Compound 1], the Tlast in data set [3] (c4 Mean) was 24.0 ± — h. In data set [3] (c4 Mean ± SD), this molecule yielded an AUC0-inf of 6888 ± 359 ng·h/mL, an AUC0-last of 6830 ± 349 ng·h/mL, an AUCExtra of 0.845 ± 0.104% and an AUMCExtra of 5.42 ± 0.663%. In data set [3] (c4 Mean ± SD), this molecule came in with a C0 of 2598 ± 572 ng/mL, a Cl of 19.1 ± 0.970 mL/min/kg, an MRT0-inf of 4.56 ± 0.193 h and an MRT0-last of 4.35 ± 0.187 h. For the same molecule, in data set [3] (c4 Mean ± SD), the T1/2 was determined as 3.65 ± 0.123 h and the Vdss is reported as 5.21 ± 0.349 L/kg. For the same molecule, the Bioavailability in data set [4] (PO 15 mg/kg vs IV 10 mg/kg, calculated using AUC0-inf) is given as 17.8 ± — %. Also, in data set [4] (setting [5]), the AUC0-inf is 1911 ± 94.3 ng·h/mL, the AUC0-last amounted to 1896 ± 93.7 ng·h/mL, the AUCExtra stood at 0.787 ± 0.278% and the AUMCExtra came to 4.01 ± 1.60%. In data set [4] (setting [5]), the Cmax is recorded as 276 ± 75.4 ng/mL, the MRT0-inf stood at 5.73 ± 0.999 h, the MRT0-last worked out at 5.54 ± 1.000 h and the T1/2 came to 3.29 ± 0.278 h. Moreover, in data set [4] (setting [5]), the time of peak concentration (Tmax) was 2.33 ± 1.53 h. Moreover, the Tlast in data set [4] (PO 15 mg/kg, M04-M06 individual, c4 Mean, 15 mg/kg, mean) is on record as 24.0 ± — h.

The values are drawn from patent US12293809B2, “Workflow for generating compounds with biological activity against a specific biological target” (INSILICO MEDICINE IP LIMITED, priority 2019, dated 2025).
